Consider three molecules from patent publication US6437157B1, “20-substituted steroids” (Hoechst Marion Roussel, priority 1994, dated 2002).

In one experiment the test system is human spermatozoids. As to the kind of experiment: Measurement of intracellular calcium in human spermatozoids (Fura2-AM fluorescence). The experiment is classed as cell-based. Here is the method: The human sperm originated from healthy donors. […] The mobile spermatozoids were incubated for a minimum of 2 hours in the BWW/HSA capacitating medium and were then incubated at a concentration of 5-10×10^6/ml with Fura2-AM to a final concentration 2 μM at 37° C. for 45 minutes. After washing by centrifugation at 600 g for 10 minutes in. BWW without HSA, the spermatozoids were suspended at a concentration of 4×10^6/ml. The florescence signal was measured at 37° C. using a spectrofluorimeter at excitation wave lengths of 340 and 380 nm (PTIM 2001-Kontron) or at 340, 360 and 380 nm (Hitachi F 2000—B. Braun Science Tec.). The fluorescence emission was recorded at 505 nm. The progesterone or the products to be tested, dissolved in absolute ethanol, were added to the incubation medium at a final concentration of 0.1% of ethanol. When an antagonistic effect of the progesterone was sought, the product was added to the medium 2 minutes before the progesterone. At the end of the each dosage, 5 μM of ionomycin were added to the sample to measure the maximum fluorescence signal. […] These values allowed the intracellular concentration of calcium ([Ca^2+]i) to be calculated by the method described by Grunkiewicz et al. 1985, J. Biol. Chem., Vol. 260, pp. 3440-3450).

Experiment [1] deals with Sigma receptor. As to the kind of experiment: Sigma receptor relative bond affinity (RBA), 3H PPP displacement, rat testicle membranes. The experiment is classed as binding. Conditions: 3 nM 3H PPP, haloperidol set equal to 100. Here is the method:
(§1) The relative bond affinity was evaluated for preparations of rat brain and testicle membranes.
(§2) Male Sprague-Dawley rats originating from Iffa Credo and weighing approximately 200 g were used. The animals were scarified by decapitation and the brain and testicles were removed and homogenized in 10 to 25 volumes of 50 mM Tris-HCl buffer (pH 7.7) at 4° C. using an Ultrathurax. The homogenates were centrigued at 30,000 g for 15 minutes at 4° C. and the pellets were washed 3 times by resuspension in the same buffer and centrifugation under the same conditions. The membranes obtained in this way were stored at −80° C.
(§3) The marker of the sigma receptors used was ^3H PPP (propyl-3-(propyl-3-(3-hydroxyphenyl)-piperidine) of NEN having a specific activity of 3404 GBq/mmol. The membranes were suspended in the 50 mM Tris-HCl buffer, pH 8.0 to obtain a concentration of proteins of approximately 0.6 mg/ml for the testicles and 1 mg/ml for the brain. Aliquots of the homogenate were incubated for 90 minutes at 25° C. in a total volume of 0.5 ml with 3 nM of ^3H PPP in the presence of increasing concentrations of reference product (haloperidol) or of the products to be tested. At the end of the incubation, the 3H PPP bound to the membranes was separated from the free ^3H PPP by rapid filtration on Whatman GF/C filters pre-treated beforehand with 0.05% of polyethyleneimine. The precipitate was washed twice with 5 ml of Tris-HCl buffer and the radioactivity was counted after the addition of 20 ml of Aqualyte scintillating liquid (Baker).
(§4) The following two curves were drawn: percentage of bound tritiated marker 100×B/BO as a function of the logarithm of the concentration of unlabelled reference product or as a function of the logarithm of the concentration of unlabelled test product. The straight line of the following equation was determined:
(§5) BO=concentration of the bound tritiated marker in the absence of any unlabelled product.
B=concentration of the bound tritiated marker in the presence of a concentration X of unlabelled product. […]

The subject of experiment [2] is Sigma receptor. The experiment in a line: Sigma receptor relative bond affinity (RBA), 3H PPP displacement, rat brain membranes. In kind it is binding. As to conditions: for Relative bond affinity (RBA) for the Sigma receptor, Brain (rat): 3 nM 3H PPP, haloperidol set equal to 100; for Displacement of 3H PPP from the Sigma receptor (in words): also evaluated on testicles. Here is the method:
as §1, §2, §3, §4, §5
B=concentration of the bound tritiated marker in the presence of a concentration X of unlabelled product.
Bmin=concentration of the bound tritiated marker in the presence of a large excess of the unlabelled reference product (5,000 nM).
The intersections of the straight line I50 and the curves allowed the evaluation of the concentrations of the unlabelled reference product (CH) and of the unlabelled test product (CX) which inhibited by 50% the specific binding of the tritiated marker on the receptor. The relative bond affinity (RBA) of the test product was determined by the equation:
The RBA of the haloperidol was arbitrarily set equal to 100.
Background: Loss of bound radioactivity is the signal in a displacement assay; it reports binding, not function.

For `C[C@H](NCCN(C)C)[C@@H]1CC[C@@H]2[C@H]3CCc4cc(O)ccc4[C@@H]3CC[C@]21C` [Example 1, (20S)(8α,9β,13α,14β,17α) 20-((dimethylamino)-ethyl)-amino-19-nor-Δ^1,3,5(10)-pregnatrien-3-ol], the “[Ca2+]i relative to the basal level set equal to 1” value in the experiment with human spermatozoids (2 minutes pre-treatment with U 10^-5M + PROG. 10^-5M, Mean±SEM n=3) is recorded as 1.0 ± 0.0; in the experiment on human spermatozoids (2 minutes pre-treatment with U 10^-6M + PROG. 10^-5M, Mean±SEM n=3), 2.63 ± 0.57; in the experiment with human spermatozoids (2 minutes pre-treatment with U 10^-7M + PROG. 10^-5M, Mean±SEM n=3) it was 4.26 ± 1.93; in the experiment on human spermatozoids (2 minutes pre-treatment with U 10^-8M + PROG. 10^-5M, Mean±SEM n=3), 3.33 ± 0.87; with human spermatozoids (Pre-treatment 2 mn with U 10^-5M + PROG. 10^-5M, Mean±SEM n=8), 0.95 ± 0.05; with human spermatozoids (U 10^-5M alone, Mean±SEM n=8), 0.95 ± 0.05. Besides, the “Antagonistic effect on the progesterone-induced [Ca2+]i increase (in words)” value with human spermatozoids (Product U 10^-5M added 2 minutes before the progesterone) was “completely antagonized the effect of progesterone”. Besides, the “Relative bond affinity (RBA) for the Sigma receptor, Testicle (rat)” value (shortened to “Relative bond affinity (RBA) … Testicle (rat)”) in the experiment with Sigma receptor [1] was 58.0. Also, in the experiment with Sigma receptor [2], the “Relative bond affinity (RBA) for the Sigma receptor, Brain (rat)” value (shortened to “Relative bond affinity (RBA) … Brain (rat)”) is given as 4.3. In the experiment on Sigma receptor [2], the “Displacement of 3H PPP from the Sigma receptor (in words)” value is on record as “capable of displacing ^3H PPP”.
Take `O=C(CCCN1CCC(O)(c2ccc(Cl)cc2)CC1)c1ccc(F)cc1` [Haloperidol]: the “Relative bond affinity (RBA) … Testicle (rat)” value in the experiment on Sigma receptor [1] was 100.0. The “Relative bond affinity (RBA) … Brain (rat)” value in the experiment with Sigma receptor [2] is 100.0.
Regarding `CC(=O)[C@H]1CC[C@H]2[C@@H]3CCC4=CC(=O)CC[C@]4(C)[C@H]3CC[C@]12C` [Progesterone, reference compound], the “[Ca2+]i relative to the basal level set equal to 1” value in the experiment on human spermatozoids (PROG. 10^-5M alone, Mean±SEM n=3) is on record as 3.67 ± 0.97. Moreover, the “[Ca2+]i relative to the basal level set equal to 1” value with human spermatozoids (PROG. 10^-5M alone, Mean±SEM n=8) was 5.76 ± 0.84. Besides, the “Effect on the intracellular calcium of human spermatozoids (in words)” value in the experiment with human spermatozoids (progesterone 10^-5 M alone) is “induced a transitory increase of the [Ca^2+]i”. Moreover, the “Relative bond affinity (RBA) … Testicle (rat)” value in the experiment with Sigma receptor [1] stood at 0.3. Moreover, in the experiment with Sigma receptor [2], the “Relative bond affinity (RBA) … Brain (rat)” value is reported as 0.7 and the “Displacement of 3H PPP from the Sigma receptor (in words)” value is recorded as “capable of displacing ^3H PPP”.
